Results published in patent US6737383B1, “Herbicidal oxadiazolidines” (priority 1999, dated 2004).

Legend:
blackgrass = test: Test B pre/postemergence blackgrass; type: in vivo, Alopecurus myosuroides
Procedure, shortened: (§1)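 Test chemicals in a non-phytotoxic solvent mixture with surfactant were sprayed preemergence onto planted seeds and postemergence onto plants 2 to 18 cm tall (1- to 4-leaf stage). After twelve to sixteen days in a greenhouse, injury was visually rated against untreated controls from 0 (no effect) to 10 (complete control).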

surinam grass = test: Test B pre/postemergence surinam grass; type: in vivo, Brachiaria decumbens
Procedure, shortened: as §1

cocklebur = test: Test B pre/postemergence cocklebur; type: in vivo, Xanthium strumarium
Procedure, shortened: as §1

giant foxtail = test: Test B pre/postemergence giant foxtail; type: in vivo, Setaria faberii
Procedure, shortened: as §1

morningglory = test: Test B pre/postemergence morningglory; type: in vivo, Ipomoea hederacea
Procedure, shortened: as §1

pigweed = test: Test B pre/postemergence pigweed; type: in vivo, Amaranthus retroflexus
Procedure, shortened: as §1

rape = test: Test B pre/postemergence rape; type: in vivo, Brassica napus
Procedure, shortened: as §1

soybean = test: Test B pre/postemergence soybean; type: in vivo, Glycine max
Procedure, shortened: as §1

velvetleaf = test: Test B pre/postemergence velvetleaf; type: in vivo, Abutilon theophrasti
Procedure, shortened: as §1

wheat = test: Test B pre/postemergence wheat; type: in vivo, Triticum aestivum
Procedure, shortened: as §1

wild oat = test: Test B pre/postemergence wild oat; type: in vivo, Avena fatua
Procedure, shortened: as §1

purple nutsedge = test: Test B pre/postemergence purple nutsedge; type: in vivo, Cyperus rotundus
Procedure, shortened: as §1

smallflower flatsedge = test: Test B flood test smallflower flatsedge; type: in vivo, Cyperus difformis
Procedure, shortened: (§2)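 Read-out is a visual response score from 0 (no effect) to 10 (complete control), assigned by comparison with untreated controls. Treatment was applied at the 2-leaf stage, and plants stayed in the greenhouse for twelve to sixteen days before scoring.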

duck salad = test: Test B flood test duck salad; type: in vivo, Heteranthera limosa
Procedure, shortened: as §2

bamyardgrass = test: Test B flood test barnyardgrass; type: in vivo, Echinochloa crus-galli
Procedure, shortened: as §2

[1] = Postemergence, Rate 250 g/ha, scale 0 to 10
[2] = Postemergence, Rate 500 g/ha, scale of 0 to 10 where 0 is no effect and 10 is complete control
[3] = Preemergence, Rate 62 g/ha, scale 0 to 10 (0 no effect, 10 complete control)
[4] = Preemergence, Rate 125 g/ha, scale of 0 to 10 where 0 is no effect and 10 is complete control
[5] = Preemergence, Rate 250 g/ha, scale of 0 to 10 where 0 is no effect and 10 is complete control
[6] = Preemergence, Rate 500 g/ha, scale 0 to 10, 0 is no effect, 10 is complete control
[7] = Rate 62 g/ha, Postemergence, scale of 0 to 10 where 0 is no effect and 10 is complete control
[8] = Rate 125 g/ha, Postemergence, scale 0 to 10, 0 is no effect, 10 is complete control
[9] = Preemergence, Rate 500 g/ha, scale of 0 to 10 where 0 is no effect and 10 is complete control
[10] = Preemergence, Rate 250 g/ha, scale 0 to 10, 0 is no effect, 10 is complete control
[11] = Postemergence block (flood test species), Rate 250 g/ha, scale 0 to 10
[12] = Postemergence section (flood test species), Rate 500 g/ha, scale of 0 to 10 where 0 is no effect and 10 is complete control
[13] = Rate 125 g/ha, Postemergence section (flood test species), scale 0 to 10, 0 is no effect, 10 is complete control
[14] = Rate 62 g/ha, Postemergence (flood test species), scale of 0 to 10 where 0 is no effect and 10 is complete control
[15] = Postemergence, Rate 125 g/ha, scale 0 to 10, 0 is no effect, 10 is complete control
[16] = Postemergence, Rate 250 g/ha, scale 0 to 10, 0 is no effect, 10 is complete control
[17] = flood test species, listed under Postemergence, Rate 250 g/ha, scale 0 to 10, 0 is no effect, 10 is complete control
[18] = Postemergence (flood test), Rate 125 g/ha, scale 0 to 10, 0 is no effect, 10 is complete control

## C=C[Si](C)(C)Cn1c(=O)on(C(=O)N(c2ccc(Cl)cc2)C(C)C)c1=O [Compound 425]
blackgrass; [1]
  Blackgrass plant response rating: 8
blackgrass; [2]
  Blackgrass plant response rating: 9
blackgrass; [3]
  Plant response rating, Blackgrass: 7
blackgrass; [4]
  Plant response rating, Blackgrass: 9
blackgrass; [5]
  Blackgrass plant response rating: 9
blackgrass; [6]
  Blackgrass plant response rating: 10
blackgrass; [7]
  Blackgrass plant response rating: 2
blackgrass; [8]
  Blackgrass plant response rating: 3
Surinam grass; Postemergence, Rate 250 g/ha, scale 0 to 10, 0 no effect, 10 complete control
  B. signalgrass plant response rating: 7
Surinam grass; [2]
  B. signalgrass plant response rating: 8
Surinam grass; [3]
  Plant response rating, B. signalgrass: 3
Surinam grass; [4]
  Plant response rating, B. signalgrass: 8
Surinam grass; [5]
  B. signalgrass plant response rating: 8
Surinam grass; [9]
  B. signalgrass plant response rating: 9
Surinam grass; [7]
  B. signalgrass plant response rating: 0
Surinam grass; [8]
  B. signalgrass plant response rating: 2
cocklebur; [1]
  Cocklebur plant response rating: 0
cocklebur; [2]
  Cocklebur plant response rating: 0
cocklebur; [3]
  Plant response rating, Cocklebur: 0
cocklebur; [4]
  Plant response rating, Cocklebur: 0
cocklebur; [10]
  Cocklebur plant response rating: 0
cocklebur; [6]
  Cocklebur plant response rating: 2
cocklebur; [7]
  Cocklebur plant response rating: 0
cocklebur; [8]
  Cocklebur plant response rating: 0
Giant foxtail; [1]
  Giant foxtail plant response rating: 8
Giant foxtail; [2]
  Giant foxtail plant response rating: 9
Giant foxtail; [3]
  Plant response rating, Giant foxtail: 10
Giant foxtail; [4]
  Plant response rating, Giant foxtail: 10
Giant foxtail; [10]
  Giant foxtail plant response rating: 10
Giant foxtail; [6]
  Giant foxtail plant response rating: 10
Giant foxtail; [7]
  Giant foxtail plant response rating: 6
Giant foxtail; [8]
  Giant foxtail plant response rating: 7
morningglory; [1]
  Morningglory plant response rating: 6
morningglory; [2]
  Morningglory plant response rating: 10
morningglory; [3]
  Plant response rating, Morningglory: 0
morningglory; [4]
  Plant response rating, Morningglory: 0
morningglory; [10]
  Morningglory plant response rating: 2
morningglory; [6]
  Morningglory plant response rating: 4
morningglory; [8]
  Morningglory plant response rating: 5
pigweed; [1]
  Redroot pigweed plant response rating: 2
pigweed; [2]
  Redroot pigweed plant response rating: 2
pigweed; [3]
  Plant response rating, Redroot pigweed: 0
pigweed; [4]
  Plant response rating, Redroot pigweed: 0
pigweed; [10]
  Redroot pigweed plant response rating: 3
pigweed; [6]
  Redroot pigweed plant response rating: 3
pigweed; [8]
  Redroot pigweed plant response rating: 0
rape; [1]
  Rape plant response rating: 2
rape; [2]
  Rape plant response rating: 3
rape; [3]
  Plant response rating, Rape: 0
rape; [4]
  Plant response rating, Rape: 2
rape; [10]
  Rape plant response rating: 2
rape; [6]
  Rape plant response rating: 10
rape; [8]
  Rape plant response rating: 0
soybean; [1]
  Soybean plant response rating: 2
soybean; [2]
  Soybean plant response rating: 3
soybean; [3]
  Plant response rating, Soybean: 0
soybean; [4]
  Plant response rating, Soybean: 0
soybean; [10]
  Soybean plant response rating: 0
soybean; [6]
  Soybean plant response rating: 0
soybean; [8]
  Soybean plant response rating: 1
velvetleaf; [1]
  Velvetleaf plant response rating: 0
velvetleaf; [2]
  Velvetleaf plant response rating: 2
velvetleaf; [3]
  Plant response rating, Velvetleaf: 0
velvetleaf; [4]
  Plant response rating, Velvetleaf: 0
velvetleaf; [10]
  Velvetleaf plant response rating: 2
velvetleaf; [6]
  Velvetleaf plant response rating: 6
velvetleaf; [8]
  Velvetleaf plant response rating: 0
wheat; [1]
  Wheat plant response rating: 3
wheat; [2]
  Wheat plant response rating: 6
wheat; [3]
  Plant response rating, Wheat: 2
wheat; [4]
  Plant response rating, Wheat: 2
wheat; [10]
  Wheat plant response rating: 3
wheat; [6]
  Wheat plant response rating: 4
wheat; [8]
  Wheat plant response rating: 0
Wild oat; [1]
  Wild oats plant response rating: 2
Wild oat; [2]
  Wild oats plant response rating: 3
Wild oat; [3]
  Plant response rating, Wild oats: 2
Wild oat; [4]
  Plant response rating, Wild oats: 4
Wild oat; [10]
  Wild oats plant response rating: 4
Wild oat; [6]
  Wild oats plant response rating: 10
Wild oat; [8]
  Wild oats plant response rating: 0
Purple nutsedge; [1]
  Nutsedge plant response rating: 0
Purple nutsedge; [2]
  Nutsedge plant response rating: 0
Purple nutsedge; [3]
  Plant response rating, Nutsedge: 0
Purple nutsedge; [4]
  Plant response rating, Nutsedge: 0
Purple nutsedge; [10]
  Nutsedge plant response rating: 3
Purple nutsedge; [6]
  Nutsedge plant response rating: 5
Purple nutsedge; [8]
  Nutsedge plant response rating: 0
Smallflower flatsedge; [11]
  S. Flatsedge plant response rating: 2
Smallflower flatsedge; [12]
  S. Flatsedge plant response rating: 6
Smallflower flatsedge; [13]
  S. Flatsedge plant response rating: 0
Duck salad; [11]
  Ducksalad plant response rating: 0
Duck salad; [12]
  Ducksalad plant response rating: 0
Duck salad; [14]
  Ducksalad plant response rating: 0
Duck salad; [13]
  Ducksalad plant response rating: 0
bamyardgrass; [11]
  Barnyardgrass plant response rating: 1
bamyardgrass; [12]
  Barnyardgrass plant response rating: 7
bamyardgrass; [14]
  Barnyardgrass plant response rating: 0
bamyardgrass; [13]
  Barnyardgrass plant response rating: 0

## CC(C)N(C(=O)n1oc(=O)n(CCC(F)(F)F)c1=O)c1ccc(F)cc1 [Compound 397]
blackgrass; [15]
  Plant response rating, Blackgrass: 8
blackgrass; [16]
  Plant response rating, Blackgrass: 9
blackgrass; [2]
  Blackgrass plant response rating: 9
blackgrass; [3]
  Plant response rating, Blackgrass: 7
blackgrass; [4]
  Plant response rating, Blackgrass: 9
blackgrass; [5]
  Blackgrass plant response rating: 10
blackgrass; [6]
  Blackgrass plant response rating: 10
blackgrass; [7]
  Blackgrass plant response rating: 6
Surinam grass; [15]
  Plant response rating, B. signalgrass: 0
Surinam grass; [16]
  Plant response rating, B. signalgrass: 2
Surinam grass; [2]
  B. signalgrass plant response rating: 8
Surinam grass; [3]
  Plant response rating, B. signalgrass: 3
Surinam grass; [4]
  Plant response rating, B. signalgrass: 6
Surinam grass; [5]
  B. signalgrass plant response rating: 9
Surinam grass; [9]
  B. signalgrass plant response rating: 10
Surinam grass; [7]
  B. signalgrass plant response rating: 0
cocklebur; [15]
  Plant response rating, Cocklebur: 0
cocklebur; [16]
  Plant response rating, Cocklebur: 0
cocklebur; [2]
  Cocklebur plant response rating: 0
cocklebur; [3]
  Plant response rating, Cocklebur: 0
cocklebur; [4]
  Plant response rating, Cocklebur: 0
cocklebur; [10]
  Cocklebur plant response rating: 0
cocklebur; [6]
  Cocklebur plant response rating: 0
cocklebur; [7]
  Cocklebur plant response rating: 0
Giant foxtail; [15]
  Plant response rating, Giant foxtail: 8
Giant foxtail; [16]
  Plant response rating, Giant foxtail: 9
Giant foxtail; [2]
  Giant foxtail plant response rating: 9
Giant foxtail; [3]
  Plant response rating, Giant foxtail: 10
Giant foxtail; [4]
  Plant response rating, Giant foxtail: 10
Giant foxtail; [10]
  Giant foxtail plant response rating: 10
Giant foxtail; [6]
  Giant foxtail plant response rating: 10
Giant foxtail; [7]
  Giant foxtail plant response rating: 8
morningglory; [16]
  Plant response rating, Morningglory: 5
morningglory; [2]
  Morningglory plant response rating: 6
morningglory; [3]
  Plant response rating, Morningglory: 0
morningglory; [4]
  Plant response rating, Morningglory: 0
morningglory; [10]
  Morningglory plant response rating: 0
morningglory; [6]
  Morningglory plant response rating: 4
morningglory; [7]
  Morningglory plant response rating: 0
pigweed; [16]
  Plant response rating, Redroot pigweed: 4
pigweed; [2]
  Redroot pigweed plant response rating: 6
pigweed; [3]
  Plant response rating, Redroot pigweed: 8
pigweed; [4]
  Plant response rating, Redroot pigweed: 8
pigweed; [10]
  Redroot pigweed plant response rating: 10
pigweed; [6]
  Redroot pigweed plant response rating: 10
pigweed; [7]
  Redroot pigweed plant response rating: 0
rape; [16]
  Plant response rating, Rape: 0
rape; [2]
  Rape plant response rating: 2
rape; [3]
  Plant response rating, Rape: 3
rape; [4]
  Plant response rating, Rape: 9
rape; [10]
  Rape plant response rating: 10
rape; [6]
  Rape plant response rating: 10
rape; [7]
  Rape plant response rating: 0
soybean; [16]
  Plant response rating, Soybean: 5
soybean; [2]
  Soybean plant response rating: 6
soybean; [3]
  Plant response rating, Soybean: 0
soybean; [4]
  Plant response rating, Soybean: 0
soybean; [10]
  Soybean plant response rating: 0
soybean; [6]
  Soybean plant response rating: 0
soybean; [7]
  Soybean plant response rating: 3
velvetleaf; [16]
  Plant response rating, Velvetleaf: 0
velvetleaf; [2]
  Velvetleaf plant response rating: 0
velvetleaf; [3]
  Plant response rating, Velvetleaf: 0
velvetleaf; [4]
  Plant response rating, Velvetleaf: 2
velvetleaf; [10]
  Velvetleaf plant response rating: 6
velvetleaf; [6]
  Velvetleaf plant response rating: 6
velvetleaf; [7]
  Velvetleaf plant response rating: 0
wheat; [2]
  Wheat plant response rating: 4
wheat; [3]
  Plant response rating, Wheat: 0
wheat; [4]
  Plant response rating, Wheat: 0
wheat; [10]
  Wheat plant response rating: 2
wheat; [6]
  Wheat plant response rating: 3
wheat; [7]
  Wheat plant response rating: 0
Wild oat; [2]
  Wild oats plant response rating: 5
Wild oat; [3]
  Plant response rating, Wild oats: 2
Wild oat; [4]
  Plant response rating, Wild oats: 5
Wild oat; [10]
  Wild oats plant response rating: 7
Wild oat; [6]
  Wild oats plant response rating: 10
Wild oat; [7]
  Wild oats plant response rating: 0
Purple nutsedge; [16]
  Plant response rating, Nutsedge: 0
Purple nutsedge; [2]
  Nutsedge plant response rating: 0
Purple nutsedge; [3]
  Plant response rating, Nutsedge: 0
Purple nutsedge; [4]
  Plant response rating, Nutsedge: 0
Purple nutsedge; [10]
  Nutsedge plant response rating: 0
Purple nutsedge; [6]
  Nutsedge plant response rating: 0
Purple nutsedge; [7]
  Nutsedge plant response rating: 0
Smallflower flatsedge; [12]
  S. Flatsedge plant response rating: 0
Smallflower flatsedge; [14]
  S. Flatsedge plant response rating: 0
Smallflower flatsedge; [17]
  Plant response rating, S. Flatsedge: 0
Duck salad; [18]
  Plant response rating, Ducksalad: 0
Duck salad; [12]
  Ducksalad plant response rating: 0
Duck salad; [14]
  Ducksalad plant response rating: 0
Duck salad; [17]
  Plant response rating, Ducksalad: 0
bamyardgrass; [18]
  Plant response rating, Barnyardgrass: 0
bamyardgrass; [12]
  Barnyardgrass plant response rating: 0
bamyardgrass; [14]
  Barnyardgrass plant response rating: 0
bamyardgrass; [17]
  Plant response rating, Barnyardgrass: 0
